According to patent publication US11345694B2, “Antibacterial compounds” (DISCUVA LTD., priority 2017, dated 2022):
Values after ≈ are worked out from the molar mass of the structure shown. Like-named read-outs stand apart in the source and are kept apart here.

Tests used:
[1] = tested on: E. coli NCTC 13441 (UPEC); assay: MIC broth microdilution; type: cell-based, Escherichia coli; settings: for MIC: Escherichia coli, NCTC13441
Protocol: (§1) Minimum Inhibitory Concentrations (MICs) versus planktonic bacteria are determined by the broth microdilution procedure according to the guidelines of the Clinical and Laboratory Standards Institute (Clinical and Laboratory Standards Institute. Methods for Dilution Antimicrobial Susceptibility Tests for Bacteria That Grow Aerobically; Approved Standard-tenth Edition. CLSI document M07-A10, 2015). The broth dilution method involves a two-fold serial dilution of compounds in 96-well microtitre plates, giving a final concentration range of 0.39-200 μM and a maximum final concentration of 2% DMSO. The bacterial strains tested include Escherichia coli K12 (EC), E. coli NCTC 13441 (UPEC), Staphylococcus aureus ATCC 35556 (SA), Acinetobacter baumannii ATCC 17978 (AB), Pseudomonas aeruginosa ATCC 33359 (PA), Enterobacter cloacae DSM 30054 (Ed), Serratia marcescens SL1344 (Sm), Salmonella typhimurium XNAA5 (St), Klebsiella pneumoniae ATCC 10031 (KP2), K. pneumoniae NCTC 13438 (KP1), K. pneumoniae ATCC 700603 (KP3), Klebsiella pneumoniae ATCC 51504 (KP4), K. pneumoniae H154680676 (KP5), K. pneumoniae H154020667 (KP6), K. pneumoniae H154640784 (KP7), K. pneumoniae H154600588 (KP8), K. pneumoniae H154300688 (KP9), K. pneumoniae H151440671 (KP10). Strains are grown in cation-adjusted Müller-Hinton broth or on Luria Bertoni agar at 37° C. in an ambient atmosphere. The MIC is determined as the lowest concentration of compound that inhibits growth following a 20-24 hour incubation period.

[2] = tested on: Acinetobacter baumannii ATCC 17978 (AB); assay: MIC broth microdilution; type: cell-based; settings: for MIC: ATCC17978
Protocol: as §1

[3] = tested on: Escherichia coli K12 (EC); assay: MIC broth microdilution; type: cell-based
Protocol: as §1

[4] = tested on: Klebsiella pneumoniae ATCC 10031 (KP2); assay: MIC broth microdilution; type: cell-based; settings: for MIC: ATCC10031
Protocol: as §1

[5] = tested on: Pseudomonas aeruginosa ATCC 33359 (PA); assay: MIC broth microdilution; type: cell-based; settings: for MIC: ATCC33359
Protocol: as §1

[6] = tested on: Staphylococcus aureus ATCC 35556 (SA); assay: MIC broth microdilution; type: cell-based; settings: for MIC: ATCC35556
Protocol: as §1

[7] = tested on: K. pneumoniae NCTC 13438 (KP1); assay: MIC broth microdilution; type: cell-based, Klebsiella pneumoniae; settings: for MIC: Klebsiella pneumoniae, NCTC13438
Protocol: as §1

[8] = tested on: human hepatocarcinoma cell line ATCC HB-8065 (HepG2); assay: Human cell viability (CellTiter-Glo); type: cell-based; settings: HepG2 cells, 24 h incubation, CellTiter-Glo luminescence, 0.2-100 μM, read-out: IC50 values against the HepG2 cell line
Protocol: Compounds are assessed for potential non-specific cytotoxic effects against the human hepatocarcinoma cell line ATCC HB-8065 (HepG2). HepG2 cells are seeded at 20,000 cells/well in 96-well microtitre plates in minimal essential medium (MEM) supplemented with a final concentration of 10% FBS. After 24 h, compound dilutions are prepared in MEM supplemented with a final concentration of 1% FBS, and added to the cells. Compounds are tested in two-fold serial dilutions over a final concentration range of 0.2-100 μM in a final DMSO concentration of 1% vol/vol. Thioridazine is used as a positive control. Cells are incubated with compound at 37° C. and 5% CO2 for a further 24 h, after which time the CellTiter-Glo reagent (Promega) is added. Luminescence is measured on a Perkin Elmer Envision plate reader. Data are analysed using a 4 parameter logistic regression to determine the concentration of compound that inhibits cell viability by fifty percent (IC50).

Q: Which results are given for `Cc1cc(-c2nc(N)[nH]c2-c2ccc(OC3CC3)c(F)c2)ccn1` [Example 14, 5-(4-Cyclopropoxy-3-fluorophenyl)-4-(2-methylpyridin-4-yl)-1H-imidazol-2-amine]?
A: MIC [1]: ≤ 1 µM; MIC [2]: > 100 µM; MIC [3]: ≤ 1 µM; MIC [4]: ≤ 1 µM; MIC [5]: > 100 µM; MIC [6]: > 100 µM; MIC [7]: 1 to 10 µM (≈ 0.324 to 3.24 µg/mL); IC50 ([8]; Homo sapiens): > 100 µM

Q: Which MIC [1] does the source give for `COc1ccc(-c2nc(N)[nH]c2-c2ccnc(C)c2)cn1` [Example 2, 4-(6-Methoxypyridin-3-yl)-5-(2-methylpyridin-4-yl)-1H-imidazol-2-amine] here?
A: Its MIC is 1 to 10 µM (≈ 0.281 to 2.81 µg/mL).

Q: And the MIC [2]?
A: The MIC was > 100 µM.

Q: And the MIC [3]?
A: Its MIC is 1 to 10 µM (≈ 0.281 to 2.81 µg/mL).

Q: And the MIC [4]?
A: Its MIC is ≤ 1 µM.

Q: And the MIC [5]?
A: Its MIC is > 100 µM.

Q: And the MIC [6]?
A: Its MIC is > 100 µM.

Q: What about the MIC [7] of the same molecule?
A: Its MIC is 10 to 100 µM (≈ 2.81 to 28.1 µg/mL).

Q: And the IC50 ([8]; Homo sapiens)?
A: The IC50 was > 100 µM.

Q: Which MIC [1] does the source give for `Cc1cc(-c2[nH]c(N)nc2-c2ccc3c(c2)OCCCO3)ccn1` [Example 5, 4-(3,4-dihydro-2H-benzo[b][1,4]dioxepin-7-yl)-5-(2-methylpyridin-4-yl)-1H-imidazol-2-amine] here?
A: The MIC was 1 to 10 µM (≈ 0.322 to 3.22 µg/mL).

Q: And the MIC [2]?
A: Its MIC is > 100 µM.

Q: What about the MIC [3] of the same molecule?
A: Its MIC is 1 to 10 µM (≈ 0.322 to 3.22 µg/mL).

Q: What about the MIC [4] of the same molecule?
A: Its MIC is ≤ 1 µM.

Q: And the MIC [5]?
A: The MIC was > 100 µM.

Q: And the MIC [6]?
A: Its MIC is > 100 µM.

Q: What about the MIC [7] of the same molecule?
A: Its MIC is 10 to 100 µM (≈ 3.22 to 32.2 µg/mL).

Q: What about the IC50 ([8]; Homo sapiens) of the same molecule?
A: Its IC50 is > 100 µM.

Q: `Cc1cc(-c2[nH]c(C(=O)O)nc2-c2ccc3c(c2)OCCO3)ccn1` [Example 86, 4-(2,3-dihydrobenzo[b][1,4]dioxin-6-yl)-5-(2-methylpyridin-4-yl)-1H-imidazole-2-carboxylate] was tested. Which “MIC UPEC” value [1] did it give?
A: The value was “D (a MIC of over 100 is assigned the letter D)”.

Q: And the “MIC AB” value [2]?
A: Its value is “D (a MIC of over 100 is assigned the letter D)”.

Q: What about the “MIC EC” value [3] of the same molecule?
A: The value was “D (a MIC of over 100 is assigned the letter D)”.

Q: And the “MIC KP2” value [4]?
A: Its value is “B (a MIC of from 1 to 10 is assigned the letter B)”.

Q: What about the “MIC PA” value [5] of the same molecule?
A: The value was “D (a MIC of over 100 is assigned the letter D)”.

Q: And the “MIC SA” value [6]?
A: Its value is “D (a MIC of over 100 is assigned the letter D)”.

Q: And the “MIC KP1” value [7]?
A: The value was “D (a MIC of over 100 is assigned the letter D)”.

Q: What about the IC50 [8] of the same molecule?
A: The IC50 was > 100 µM.

Q: For `Cc1cc(-c2nc(N)[nH]c2-c2ccc(OCC3CC3)c(F)c2)ccn1` [Example 13, 5-(4-(Cyclopropylmethoxy)-3-fluorophenyl)-4-(2-methylpyridin-4-yl)-1H-imidazol-2-amine], which MIC [1] is on record?
A: Its MIC is 1 to 10 µM (≈ 0.338 to 3.38 µg/mL).

Q: And the MIC [2]?
A: The MIC was > 100 µM.

Q: And the MIC [3]?
A: The MIC was 1 to 10 µM (≈ 0.338 to 3.38 µg/mL).

Q: And the MIC [4]?
A: Its MIC is ≤ 1 µM.

Q: And the MIC [5]?
A: The MIC was > 100 µM.

Q: What about the MIC [6] of the same molecule?
A: Its MIC is > 100 µM.

Q: And the MIC [7]?
A: Its MIC is 10 to 100 µM (≈ 3.38 to 33.8 µg/mL).

Q: What about the IC50 ([8]; Homo sapiens) of the same molecule?
A: Its IC50 is 25 to 100 µM.

Q: For `Cc1cc(-c2nc(N)[nH]c2-c2ccc(O)c(F)c2)ccn1` [Example 15, 4-(2-Amino-4-(2-methylpyridin-4-yl)-1H-imidazol-5-yl)-2-fluorophenol], which MIC [1] is on record?
A: The MIC was 1 to 10 µM (≈ 0.284 to 2.84 µg/mL).

Q: And the MIC [2]?
A: The MIC was > 100 µM.

Q: What about the MIC [3] of the same molecule?
A: The MIC was 10 to 100 µM (≈ 2.84 to 28.4 µg/mL).

Q: What about the MIC [4] of the same molecule?
A: Its MIC is ≤ 1 µM.

Q: What about the MIC [5] of the same molecule?
A: Its MIC is > 100 µM.

Q: And the MIC [6]?
A: Its MIC is > 100 µM.

Q: What about the MIC [7] of the same molecule?
A: Its MIC is 10 to 100 µM (≈ 2.84 to 28.4 µg/mL).

Q: And the IC50 ([8]; Homo sapiens)?
A: The IC50 was > 100 µM.

Q: With `CCOc1ccc(-c2[nH]c(N)nc2-c2ccnc(C)c2)cc1F` [Example 17, 5-(4-Ethoxy-3-fluorophenyl)-4-(2-methylpyridin-4-yl)-1H-imidazol-2-amine] as the molecule, how does the MIC [1] read?
A: Its MIC is 1 to 10 µM (≈ 0.312 to 3.12 µg/mL).

Q: And the MIC [2]?
A: Its MIC is > 100 µM.

Q: And the MIC [3]?
A: Its MIC is 1 to 10 µM (≈ 0.312 to 3.12 µg/mL).

Q: And the MIC [4]?
A: The MIC was ≤ 1 µM.

Q: And the MIC [5]?
A: The MIC was > 100 µM.

Q: What about the MIC [6] of the same molecule?
A: The MIC was > 100 µM.

Q: And the MIC [7]?
A: Its MIC is 10 to 100 µM (≈ 3.12 to 31.2 µg/mL).

Q: And the IC50 ([8]; Homo sapiens)?
A: The IC50 was > 100 µM.

Q: How did the MIC [1] turn out when `Cc1cc(-c2[nH]c(N)nc2-c2cc(F)c3c(c2)NC(=O)CO3)ccn1` [Example 50, 6-(2-Amino-5-(2-methylpyridin-4-yl)-1H-imidazol-4-yl)-8-fluoro-2H-benzo[b][1,4]oxazin-3(4H)-one] was run?
A: Its MIC is 1 to 10 µM (≈ 0.339 to 3.39 µg/mL).

Q: And the MIC [2]?
A: Its MIC is > 100 µM.

Q: And the MIC [3]?
A: Its MIC is 1 to 10 µM (≈ 0.339 to 3.39 µg/mL).

Q: And the MIC [4]?
A: The MIC was ≤ 1 µM.

Q: And the MIC [5]?
A: The MIC was > 100 µM.

Q: And the MIC [6]?
A: The MIC was > 100 µM.

Q: And the MIC [7]?
A: Its MIC is 10 to 100 µM (≈ 3.39 to 33.9 µg/mL).

Q: And the IC50 ([8]; Homo sapiens)?
A: The IC50 was > 100 µM.
